Experimental data: US20240287062A1, “NAPHTHYRIDONE COMPOUNDS FOR INHIBITION OF RAF KINASES AND/OR BCR-ABL TYROSINE KINASES” (Enliven Inc., priority 2021, published 2024)

Legend:
Format in all cases: biochemical
Conditions in all cases: compound at 100 nM concentration
[1] = biological target: c-KIT (Homo sapiens (Human), UniProt P10721); test: Luminescence-based c-KIT kinase assay (Km ATP), ADP-Glo
Protocol: Kinase activity of c-KIT was measured using the ADP-Glo system (Promega). Compounds were diluted in DMSO at 100 μM. 20 nL of compound or DMSO only (high control, HC) were added to a 384-well plate (OptiPlate-384, PerkinElmer) using an Echo550 liquid handler (Labcyte). 15 μL of kinase solution (10 mM MgCl2, 0.01% Brij-35, 2 mM DTT, 0.05% BSA, 1 mM EGTA, 50 mM HEPES pH 7.5, and 13.3 nM c-KIT [Carna Biosciences]) were added to each well of the 384-well plate containing the compounds. No enzyme control wells were included (low control, LC). The plate was incubated at room temperature for 30 minutes. 5 μL of a second solution containing 10 mM MgCl2, 0.01% Brij-35, 2 mM DTT, 0.05% BSA, 1 mM EGTA, 50 mM HEPES pH 7.5, 0.8 μg/ml Poly(Glu-Tyr) (Sigma, Cat No 97105-00-5), and 400 μM ATP were added to each well to start the kinase reaction. The plate was incubated for 90 minutes at room temperature. 20 μL of ADP-Glo reagent (Promega) were then added to each well and the plate was incubated for 40 minutes at room temperature. […] During this step, ADP was converted to ATP, a substrate for luciferase, to produce luminescence signal. Luminescence was measured on an Envision plate reader (Perkin Elmer). Luminescence signal positively correlates with kinase activity. The percent inhibition of kinase activity was calculated as follows: percent inhibition=100×(LumHC−LumSample)/(LumHC−LumLC). […]

[2] = biological target: KDR (VEGFR2) (Homo sapiens (Human), UniProt P35968); test: Luminescence-based KDR kinase assay (Km ATP), ADP-Glo
Protocol: (§1) Kinase activity of KDR was measured using the ADP-Glo system (Promega). Compounds were diluted in DMSO at 100 μM. 20 nL of compound or DMSO only (high control, HC) were added to a 384-well plate (OptiPlate-384, PerkinElmer) using an Echo550 liquid handler (Labcyte). 15 μL of kinase solution (10 mM MgCl2, 0.01% Brij-35, 2 mM DTT, 0.05% BSA, 1 mM EGTA, 0.05% CHAPSO, 50 mM HEPES pH 7.5, and 0.665 nM KDR [Carna Biosciences]) were added to each well of the 384-well plate containing the compounds. No enzyme control wells were included (low control, LC). The plate was incubated at room temperature for 30 minutes. 5 μL of a second solution containing 10 mM MgCl2, 0.01% Brij-35, 2 mM DTT, 0.05% BSA, 1 mM EGTA, 50 mM HEPES pH 7.5, 6 μM Peptide 22 (Perkin Elmer, Cat No 760366), and 400 μM ATP were added to each well to start the kinase reaction. The plate was incubated for 90 minutes at room temperature. 20 μL of ADP-Glo reagent (Promega) were then added to each well and the plate was incubated for 40 minutes at room temperature. […] During this step, ADP was converted to ATP, a substrate for luciferase, to produce luminescence signal. Luminescence was measured on an Envision plate reader (Perkin Elmer). Luminescence signal positively correlates with kinase activity. The percent inhibition of kinase activity was calculated as follows: percent inhibition=100×(LumHC−LumSample)/(LumHC−LumLC). […]

[3] = biological target: SRC (Homo sapiens (Human), UniProt P12931); test: Luminescence-based SRC kinase assay (Km ATP), ADP-Glo
Protocol: as §1, with “SRC” for “KDR”, “EGTA,” for “EGTA, 0.05% CHAPSO,”, “0.532” for “0.665”, “4” for “22”, “760348),” for “760366),”, “200” for “400”

SRC, sequence (P12931 whole entry): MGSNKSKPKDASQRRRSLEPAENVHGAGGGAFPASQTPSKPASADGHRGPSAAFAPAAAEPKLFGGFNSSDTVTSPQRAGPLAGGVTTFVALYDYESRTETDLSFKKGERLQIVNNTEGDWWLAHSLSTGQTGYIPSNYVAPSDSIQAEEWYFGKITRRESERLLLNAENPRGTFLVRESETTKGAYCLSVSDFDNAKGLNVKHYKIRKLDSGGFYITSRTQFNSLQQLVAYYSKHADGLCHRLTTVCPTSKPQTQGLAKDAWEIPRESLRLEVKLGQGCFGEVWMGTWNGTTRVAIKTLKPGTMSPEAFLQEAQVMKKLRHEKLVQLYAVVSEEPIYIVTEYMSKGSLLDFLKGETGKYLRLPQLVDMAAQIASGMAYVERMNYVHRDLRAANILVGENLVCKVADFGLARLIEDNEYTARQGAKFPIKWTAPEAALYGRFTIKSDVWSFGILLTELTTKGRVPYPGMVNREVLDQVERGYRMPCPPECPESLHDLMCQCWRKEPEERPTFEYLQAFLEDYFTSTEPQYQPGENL
KDR (VEGFR2), sequence (P35968 20-1356): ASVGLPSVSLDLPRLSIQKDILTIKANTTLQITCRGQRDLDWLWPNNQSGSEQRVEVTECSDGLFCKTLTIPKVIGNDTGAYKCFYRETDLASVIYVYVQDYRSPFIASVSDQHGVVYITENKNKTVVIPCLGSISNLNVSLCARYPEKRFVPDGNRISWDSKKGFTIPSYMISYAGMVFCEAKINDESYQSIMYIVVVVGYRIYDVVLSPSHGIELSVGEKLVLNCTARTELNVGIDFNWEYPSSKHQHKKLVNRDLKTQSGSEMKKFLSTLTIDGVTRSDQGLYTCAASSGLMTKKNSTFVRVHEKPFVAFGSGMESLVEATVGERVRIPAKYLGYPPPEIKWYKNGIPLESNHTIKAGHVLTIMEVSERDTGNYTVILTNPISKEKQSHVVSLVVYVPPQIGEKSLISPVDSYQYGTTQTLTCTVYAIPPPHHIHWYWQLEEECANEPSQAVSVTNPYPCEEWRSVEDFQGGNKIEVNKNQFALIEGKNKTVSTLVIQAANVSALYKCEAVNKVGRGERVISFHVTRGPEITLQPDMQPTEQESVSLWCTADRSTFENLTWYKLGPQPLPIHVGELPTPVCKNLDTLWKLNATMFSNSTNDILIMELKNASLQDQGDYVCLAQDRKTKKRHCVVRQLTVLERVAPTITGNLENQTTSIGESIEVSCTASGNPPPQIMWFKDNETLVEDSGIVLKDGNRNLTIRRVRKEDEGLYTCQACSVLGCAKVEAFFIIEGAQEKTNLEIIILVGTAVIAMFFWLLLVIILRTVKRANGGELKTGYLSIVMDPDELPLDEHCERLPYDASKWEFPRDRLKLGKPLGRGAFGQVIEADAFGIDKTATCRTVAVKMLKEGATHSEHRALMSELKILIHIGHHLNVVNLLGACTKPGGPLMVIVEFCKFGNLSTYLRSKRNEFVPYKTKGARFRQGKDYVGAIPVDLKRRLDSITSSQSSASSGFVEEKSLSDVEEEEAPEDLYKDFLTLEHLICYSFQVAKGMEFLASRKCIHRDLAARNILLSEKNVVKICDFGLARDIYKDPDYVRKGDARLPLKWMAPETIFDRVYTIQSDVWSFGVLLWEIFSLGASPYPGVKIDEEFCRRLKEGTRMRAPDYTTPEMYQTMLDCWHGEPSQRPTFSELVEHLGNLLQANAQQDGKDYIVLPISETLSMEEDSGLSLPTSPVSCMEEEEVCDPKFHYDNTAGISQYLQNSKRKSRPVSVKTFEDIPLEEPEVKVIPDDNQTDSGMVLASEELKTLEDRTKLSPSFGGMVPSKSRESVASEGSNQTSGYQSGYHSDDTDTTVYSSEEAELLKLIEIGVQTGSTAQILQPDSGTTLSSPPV
c-KIT, sequence (P10721 26-976): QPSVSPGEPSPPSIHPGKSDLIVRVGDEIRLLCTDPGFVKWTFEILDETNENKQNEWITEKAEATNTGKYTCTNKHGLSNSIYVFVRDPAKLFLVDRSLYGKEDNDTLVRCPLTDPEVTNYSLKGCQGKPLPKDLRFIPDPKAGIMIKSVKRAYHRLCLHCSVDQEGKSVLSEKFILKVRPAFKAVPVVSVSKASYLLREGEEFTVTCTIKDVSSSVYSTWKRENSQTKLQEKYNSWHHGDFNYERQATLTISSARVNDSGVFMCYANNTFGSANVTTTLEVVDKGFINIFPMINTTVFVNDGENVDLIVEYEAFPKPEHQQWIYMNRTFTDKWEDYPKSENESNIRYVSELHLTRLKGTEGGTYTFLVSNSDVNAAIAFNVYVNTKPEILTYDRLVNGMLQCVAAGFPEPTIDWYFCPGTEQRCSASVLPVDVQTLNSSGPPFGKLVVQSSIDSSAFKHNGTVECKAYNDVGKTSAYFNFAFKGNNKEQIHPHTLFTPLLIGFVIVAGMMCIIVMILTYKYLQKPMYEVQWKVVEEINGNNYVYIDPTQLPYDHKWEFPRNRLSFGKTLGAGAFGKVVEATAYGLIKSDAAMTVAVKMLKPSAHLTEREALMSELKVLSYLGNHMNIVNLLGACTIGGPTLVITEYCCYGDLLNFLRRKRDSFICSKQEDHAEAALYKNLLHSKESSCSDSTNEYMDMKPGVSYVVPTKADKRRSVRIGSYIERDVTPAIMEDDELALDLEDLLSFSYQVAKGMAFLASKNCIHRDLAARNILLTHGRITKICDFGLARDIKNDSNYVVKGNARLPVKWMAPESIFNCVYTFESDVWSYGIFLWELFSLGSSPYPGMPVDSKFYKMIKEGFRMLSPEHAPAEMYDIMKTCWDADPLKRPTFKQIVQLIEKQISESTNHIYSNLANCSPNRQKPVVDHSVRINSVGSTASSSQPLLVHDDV

Structure (SMILES)	inhibition at 0.1 µM [1]	inhibition at 0.1 µM [2]	inhibition at 0.1 µM [3]
Cc1c(F)cncc1-c1cc2cnc(NC(=O)[C@@H]3C[C@@H]3F)cc2n(C)c1=O [Compound 28, (1S,2S)-2-fluoro-N-[3-(5-fluoro-4-methylpyridin-3-yl)-1-methyl-2-oxo-1,6-naphthyridin-7-yl]cyclopropane-1-carboxamide]	7.3%	27%	48%
Cc1c(F)cncc1-c1cc2cnc(NC(=O)C3CC3)cc2n(C)c1=O [Compound 2, N-[3-(5-fluoro-4-methylpyridin-3-yl)-1-methyl-2-oxo-1,6-naphthyridin-7-yl]cyclopropanecarboxamide]	17%	32%	77%
